In patent US20260200831A1, “Plant Oil Ceramides, Synthesis Method and Use Thereof” (SHENZHEN DIKEMAN BIOTECHNOLOGY CO., LTD., priority 2022, published 2026):

Tests used:
[1] = Cell migration (scratch) assay, skin barrier repair; type: cell-based; details: sample 100 mg/L
Description: Principle: When cells grow to form a confluent monolayer, a scratch tool is used to create a cell-free blank area on the confluent monolayer cells, the cells in the blank area are removed by a mechanical force, and through a period of incubation, the migration of the cells to the cell-free area is observed, and the migration ability of the cells is reflected by measuring the migration distance of the cells.
• 1. Marking the culture plate. Use a marker pen and ruler to draw evenly spaced horizontal lines (approximately 0.5-1 cm apart) on the back of a 6-well plate, ensuring at least 5 lines cross each well. Avoid thick lines. • 2. Cell seeding. Seed approximately 5×10^5 cells per well (the number varies for varied cells, adjusting based on cell growth rate), and the principle of inoculation is to achieve 100% confluence overnight. • 3. Cell scratching. On the following day, use a pipette tip perpendicular to the cell layer to create scratches along the pre-marked lines on the back of the plate (It is best to use the same tip for all wells). • 4. Cell washing. After the scratching was completed, rinse the cells three times with sterile PBS to remove dislodged cells, leaving a clear visible scratch gap, and then replace with fresh serum-free medium. • 5. Cell culturing and observation. […]

[2] = DPPH free radical scavenging assay
Description: DPPH is 1,1-diphenyl-2-picrylhydrazyl and can be used in antioxidant experiments.
Samples at corresponding concentrations (50, 100, 200, 400, 800 mg/L) were mixed with […] DPPH and absolute ethanol at a 1:1 volume ratio, respectively. DPPH and absolute ethanol were mixed at a 1:1 volume ratio, reacted at room temperature in the dark for 30 min, and the absorbance was measured at 517 nm. The absorbance of the sample mixed with DPPH is denoted as A1, the absorbance of the sample mixed with absolute ethanol is denoted as A2, and the absorbance of DPPH mixed with absolute ethanol is denoted as A3. The DPPH scavenging rate of the sample is calculated as [1−(A1−A2)/A3]×100%.

CCCCCCCC/C=C\CCCCCCCC(=O)N[C@@H](CO)[C@H](O)[C@H](O)CCCCCCCCCCCCCC [ceramide 3B, oleic acid ceramide]
healing rate after 24 h [1]: 59.32% | DPPH free radical scavenging rate ([2]; 50 mg/L): 7.76% | DPPH free radical scavenging rate ([2]; 100 mg/L): 12.82% | DPPH free radical scavenging rate ([2]; 200 mg/L): 24.10% | DPPH free radical scavenging rate ([2]; 400 mg/L): 29.60% | DPPH free radical scavenging rate ([2]; 800 mg/L): 33.16%
